Source: publication PMC4669789, “Selective inhibition of HDAC8 decreases neuroblastoma growth in vitro and in vivo and enhances retinoic acid-mediated differentiation” (Cell Death & Disease, 2015)

Key:
[1] = biological target: HDAC1 (Homo sapiens, UniProt Q13547); assay: In vitro HDAC activity assay (Reaction Biology); type: biochemical; conditions: cell-free; symbol; read-out: IC50 values of HDAC8 inhibitors, HDAC1
[2] = system: PBMCs; assay: Whole lysine acetylation in PBMC after intraperitoneal administration (FACS); type: in vivo, mouse; conditions: 50 mg/kg/d intraperitoneal; solvent 32.1
Procedure: Both inhibitors were intraperitoneally injected into NMRI Foxn1 nude mice in increasing doses from 40 up to 400 mg/kg per day for 2 × 5 days. Each dose was tested in a cohort of three animals. Resulting MTDs were validated within cohorts of eight animals for each inhibitor. […] As a reference, the blood of 12 untreated NMRI Foxn1 nude mice was analyzed. […] Vorinostat was used as a control for unselective HDAC inhibition.
Whole blood (100 μl) was collected from the femoral vein of untreated athymic NMRI nude mice (HsdCpb:NMRI-Foxn1^nu; Harlan Laboratories Inc.), and respective animals were killed 2 h after intraperitoneal injection of substances. For the analysis of whole acetylation levels, mice were killed at half-life time of the inhibitors. Whole blood with heparin was added to RBC lysis buffer (diluted 1 : 10) (BioLegend, San Diego, CA, USA) at a ratio of 1 : 4. Next, red blood cell lysis was performed according to the manufacturer's instructions. PBMCs were lysed in SDS lysis buffer for western blot or processed for FACS analysis.
Cells were permeabilized by incubation with 50 μg/ml digitonin for 6 min at RT. Cells were incubated with primary antibody overnight at 4 °C. After staining with Cy3-conjugated anti-rabbit antibody, cells were analyzed by FACS using CellQuest software (BD Biosciences, San Jose, CA, USA).

[3] = system: NMRI Foxn1 nude mice; assay: Blood parameters (clinical chemistry, hematology) at MTD; type: in vivo; conditions: n=8, mean ±S.D.
Procedure: Each dose was tested in a cohort of three animals. Resulting MTDs were validated within cohorts of eight animals for each inhibitor. […] As a reference, the blood of 12 untreated NMRI Foxn1 nude mice was analyzed. […] Vorinostat was used as a control for unselective HDAC inhibition.
DLTs were monitored by observation of general condition and determination of body weight. We used several criteria for objectively measuring DLT. These included a decrease in body weight of ≥20% compared with baseline body weight, blood analysis of standard parameters for clinical chemistry and hematology (central laboratory of University Hospital Heidelberg, Heidelberg, Germany) and organ histopathology (formalin-fixed, paraffin-embedded organs), by H&E stain for the detection of necrosis (Prof. Dr. AD Gruber, Institute for Veterinary Pathology, Berlin, Germany).

HDAC1, sequence (Q13547 9-321 limits assumed): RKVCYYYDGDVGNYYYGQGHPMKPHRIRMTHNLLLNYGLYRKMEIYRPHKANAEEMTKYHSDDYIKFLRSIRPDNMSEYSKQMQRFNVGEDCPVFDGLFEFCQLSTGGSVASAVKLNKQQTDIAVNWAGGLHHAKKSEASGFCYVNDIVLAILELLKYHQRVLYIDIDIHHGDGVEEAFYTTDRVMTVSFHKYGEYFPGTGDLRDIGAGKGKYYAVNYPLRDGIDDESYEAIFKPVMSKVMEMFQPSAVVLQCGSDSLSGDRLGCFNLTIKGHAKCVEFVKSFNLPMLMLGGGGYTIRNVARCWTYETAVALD

O=C(NO)c1cccc2ccccc12 [Cpd2, 1-naphthohydroxamic acid]
IC50 [1]: > 75.6 µM | whole acetyl-lysine mean fluorescent values (Blank-corrected), PBMCs [2]: 39.2 | Hematocrit ([3]; normal range 0.3–0.4): 0.4±0.01 l/l | Uric acid ([3]; normal range 0.4–3.2): 0.9 ± 1.0 mg/dL | Leukocytes ([3]; normal range 1.8–6.1): 4.4 ± 1.8 nL⁻¹ | Calcium ([3]; normal range 2.1–2.4): 2.4 ± 0.4 mmol/L | Potassium ([3]; normal range 3.8–6.4): 6.9 ± 2.2 mmol/L | Erythrocytes ([3]; normal range 5.5–8.2): 7.6 ± 0.3 pL⁻¹ | Hemoglobin ([3]; normal range 9.4–12.7): 12.4 ± 0.7 g/dL | Urea ([3]; normal range 17.4–38.3): 23.5 ± 6.4 mg/dL | AP ([3]; normal range 62.5–117.6): 123.8±35.8 U/l | Chloride ([3]; normal range 97.3–109.7): 99.9 ± 2.2 mmol/L | Sodium ([3]; normal range 123.4–135.7): 136.8 ± 5.3 mmol/L | Glucose ([3]; normal range 176.8–238.6): 187.8 ± 39.1 mg/dL | Thrombocytes ([3]; normal range 242.5–806.8): 682.0 ± 151.1 nL⁻¹ | GGT ([3]; normal range −1.9 to 1.0): −2.0±1.0 U/l
